Here are results for 24 compounds from ChEMBL document CHEMBL3991601, “The target landscape of clinical kinase drugs” (Science, 2017).

The target in experiment [1] is T1, Glycogen phosphorylase, liver form (Homo sapiens, UniProt P06737).
T1 sequence (P06737 whole entry): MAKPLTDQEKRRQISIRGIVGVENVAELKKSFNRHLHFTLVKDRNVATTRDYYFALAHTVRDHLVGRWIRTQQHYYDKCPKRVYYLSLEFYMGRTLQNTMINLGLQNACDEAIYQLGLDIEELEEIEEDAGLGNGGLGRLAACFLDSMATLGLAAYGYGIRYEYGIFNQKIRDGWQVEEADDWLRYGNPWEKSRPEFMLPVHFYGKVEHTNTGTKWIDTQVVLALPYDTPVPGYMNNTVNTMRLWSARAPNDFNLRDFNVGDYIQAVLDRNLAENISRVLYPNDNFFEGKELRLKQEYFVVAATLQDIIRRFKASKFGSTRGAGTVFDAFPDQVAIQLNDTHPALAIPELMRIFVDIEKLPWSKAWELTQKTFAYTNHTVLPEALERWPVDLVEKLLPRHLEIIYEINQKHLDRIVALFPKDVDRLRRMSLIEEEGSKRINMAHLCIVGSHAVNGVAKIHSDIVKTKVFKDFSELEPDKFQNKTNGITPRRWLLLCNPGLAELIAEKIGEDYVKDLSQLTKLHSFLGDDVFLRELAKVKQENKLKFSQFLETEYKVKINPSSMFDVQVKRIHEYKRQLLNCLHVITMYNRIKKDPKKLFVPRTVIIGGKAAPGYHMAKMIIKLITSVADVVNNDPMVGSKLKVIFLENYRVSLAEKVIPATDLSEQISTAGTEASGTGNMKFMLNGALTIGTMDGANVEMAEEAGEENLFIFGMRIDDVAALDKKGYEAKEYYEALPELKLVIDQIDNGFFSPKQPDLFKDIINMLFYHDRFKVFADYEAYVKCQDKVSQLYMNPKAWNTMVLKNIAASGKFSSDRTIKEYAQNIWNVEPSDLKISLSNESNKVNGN
Type of experiment: subcellular, K-562, COLO 205, SK-N-BE(2) and MV-4-11, Cell lysate. Particulars: read-out: Kd apparent.

In the next experiment the target is Adenosine kinase (Homo sapiens, UniProt P55263).
Chain of Adenosine kinase (P55263 whole entry): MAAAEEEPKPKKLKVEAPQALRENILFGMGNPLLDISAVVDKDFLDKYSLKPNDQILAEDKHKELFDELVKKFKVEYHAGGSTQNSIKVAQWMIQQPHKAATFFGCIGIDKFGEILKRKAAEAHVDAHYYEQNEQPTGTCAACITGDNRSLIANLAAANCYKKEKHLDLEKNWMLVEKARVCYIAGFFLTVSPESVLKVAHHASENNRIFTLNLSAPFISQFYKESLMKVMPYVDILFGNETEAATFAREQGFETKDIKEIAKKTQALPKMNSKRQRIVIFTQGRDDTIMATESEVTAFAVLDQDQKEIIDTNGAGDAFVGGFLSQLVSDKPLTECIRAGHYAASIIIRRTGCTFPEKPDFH
The target in experiment [2] is T2, Serine/threonine-protein kinase D3 (Homo sapiens, UniProt O94806).
T2 sequence (O94806 whole entry): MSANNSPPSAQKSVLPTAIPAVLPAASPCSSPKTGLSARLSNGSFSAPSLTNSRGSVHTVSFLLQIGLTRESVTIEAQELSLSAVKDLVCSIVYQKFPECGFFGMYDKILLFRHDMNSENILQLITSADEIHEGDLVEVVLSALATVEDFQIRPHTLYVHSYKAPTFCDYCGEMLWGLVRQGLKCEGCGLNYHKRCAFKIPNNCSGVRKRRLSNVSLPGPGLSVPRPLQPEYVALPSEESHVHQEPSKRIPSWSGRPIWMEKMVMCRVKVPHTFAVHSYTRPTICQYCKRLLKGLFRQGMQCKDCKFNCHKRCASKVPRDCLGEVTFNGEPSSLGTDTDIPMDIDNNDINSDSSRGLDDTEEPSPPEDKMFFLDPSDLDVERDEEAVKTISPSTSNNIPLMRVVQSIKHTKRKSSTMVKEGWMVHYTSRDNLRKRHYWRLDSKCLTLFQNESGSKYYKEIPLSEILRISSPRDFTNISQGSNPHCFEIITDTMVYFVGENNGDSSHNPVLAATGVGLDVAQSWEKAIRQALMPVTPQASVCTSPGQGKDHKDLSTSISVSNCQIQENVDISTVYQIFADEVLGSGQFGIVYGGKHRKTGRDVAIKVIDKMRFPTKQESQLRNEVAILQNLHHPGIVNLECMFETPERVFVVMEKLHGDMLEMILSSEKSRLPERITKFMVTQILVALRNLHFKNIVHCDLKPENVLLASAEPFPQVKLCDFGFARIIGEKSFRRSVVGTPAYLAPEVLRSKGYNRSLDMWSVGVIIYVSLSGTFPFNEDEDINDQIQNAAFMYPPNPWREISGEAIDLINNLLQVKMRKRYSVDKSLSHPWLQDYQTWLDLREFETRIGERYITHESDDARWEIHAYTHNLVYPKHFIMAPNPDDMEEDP

Experiment [3] concerns the target Rho-associated protein kinase 2 (Homo sapiens, UniProt O75116).
Experiment [4] deals with T3, Interleukin-1 receptor-associated kinase 3 (Homo sapiens, UniProt Q9Y616).
T3 sequence (Q9Y616 whole entry): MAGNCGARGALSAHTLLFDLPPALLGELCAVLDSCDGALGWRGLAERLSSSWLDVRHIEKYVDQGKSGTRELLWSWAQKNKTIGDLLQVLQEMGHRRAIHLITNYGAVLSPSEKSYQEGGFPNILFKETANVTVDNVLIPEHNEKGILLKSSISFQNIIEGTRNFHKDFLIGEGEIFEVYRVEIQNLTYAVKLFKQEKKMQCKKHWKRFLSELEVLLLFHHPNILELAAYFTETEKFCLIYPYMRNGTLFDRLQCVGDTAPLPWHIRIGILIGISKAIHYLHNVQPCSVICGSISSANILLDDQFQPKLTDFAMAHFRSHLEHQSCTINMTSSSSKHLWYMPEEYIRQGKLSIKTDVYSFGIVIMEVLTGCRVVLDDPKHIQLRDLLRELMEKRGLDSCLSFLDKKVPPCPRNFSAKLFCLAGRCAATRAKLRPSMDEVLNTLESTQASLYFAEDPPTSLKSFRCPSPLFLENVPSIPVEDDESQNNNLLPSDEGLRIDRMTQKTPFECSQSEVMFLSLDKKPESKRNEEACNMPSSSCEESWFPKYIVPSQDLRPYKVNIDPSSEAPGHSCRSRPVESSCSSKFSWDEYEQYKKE

Active and inactive are the calls of the source. Bounds are passed on as bounds.
Note: in the data inactive means no Kd found up to 30 µM.

Chain of Rho-associated protein kinase 2 (O75116 whole entry): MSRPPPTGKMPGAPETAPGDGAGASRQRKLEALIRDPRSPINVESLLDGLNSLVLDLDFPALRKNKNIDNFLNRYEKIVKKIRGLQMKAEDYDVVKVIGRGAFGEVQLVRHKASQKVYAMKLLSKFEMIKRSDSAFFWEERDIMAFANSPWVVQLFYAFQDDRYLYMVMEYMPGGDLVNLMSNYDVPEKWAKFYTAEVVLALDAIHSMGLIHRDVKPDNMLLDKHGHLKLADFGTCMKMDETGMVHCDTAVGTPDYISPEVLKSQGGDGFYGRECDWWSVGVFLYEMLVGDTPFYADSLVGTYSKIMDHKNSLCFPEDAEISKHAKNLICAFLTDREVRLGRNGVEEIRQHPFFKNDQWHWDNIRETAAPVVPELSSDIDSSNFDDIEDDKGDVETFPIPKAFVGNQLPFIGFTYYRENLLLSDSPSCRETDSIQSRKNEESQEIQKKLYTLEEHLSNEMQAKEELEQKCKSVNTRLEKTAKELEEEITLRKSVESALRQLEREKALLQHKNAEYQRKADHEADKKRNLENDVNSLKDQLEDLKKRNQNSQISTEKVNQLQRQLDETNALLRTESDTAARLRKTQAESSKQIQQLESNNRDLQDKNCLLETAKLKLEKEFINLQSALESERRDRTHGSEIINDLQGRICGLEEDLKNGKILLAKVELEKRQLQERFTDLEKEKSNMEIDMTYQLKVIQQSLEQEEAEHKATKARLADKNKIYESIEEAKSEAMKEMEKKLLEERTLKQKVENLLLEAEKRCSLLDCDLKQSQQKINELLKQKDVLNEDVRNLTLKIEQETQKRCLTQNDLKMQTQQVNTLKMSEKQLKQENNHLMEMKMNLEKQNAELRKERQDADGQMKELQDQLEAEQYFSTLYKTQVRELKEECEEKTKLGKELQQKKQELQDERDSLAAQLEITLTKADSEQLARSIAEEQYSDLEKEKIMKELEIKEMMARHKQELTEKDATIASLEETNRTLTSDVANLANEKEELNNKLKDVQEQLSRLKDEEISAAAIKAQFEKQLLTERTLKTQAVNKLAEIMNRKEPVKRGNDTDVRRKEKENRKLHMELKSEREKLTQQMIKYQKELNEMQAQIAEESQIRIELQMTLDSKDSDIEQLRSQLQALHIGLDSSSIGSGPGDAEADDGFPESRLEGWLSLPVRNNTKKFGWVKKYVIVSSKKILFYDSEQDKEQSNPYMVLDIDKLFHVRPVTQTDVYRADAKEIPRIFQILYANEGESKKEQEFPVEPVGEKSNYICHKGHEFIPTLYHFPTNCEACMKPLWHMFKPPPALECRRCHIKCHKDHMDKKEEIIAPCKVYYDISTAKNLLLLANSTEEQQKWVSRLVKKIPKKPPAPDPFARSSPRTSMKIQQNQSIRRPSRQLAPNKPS

Consider `CCc1nc(C(N)=O)c(Nc2ccc(N3CCC(N4CCN(C)CC4)CC3)c(OC)c2)nc1NC1CCOCC1` [GILTERITINIB], for which the Kd (in experiment [1]; on Adenosine kinase; in experiment [2]; in experiment [3]) was > 30 µM (inactive) in each case.
Take `Cc1cc(Nc2nc(N[C@@H](C)c3ncc(F)cn3)ncc2Cl)n[nH]1` [AZD-1480]: the Kd (in experiment [1]; at Adenosine kinase; in experiment [2]; in experiment [3]; in experiment [4]) was > 30 µM (inactive) throughout.
In the case of `Cc1ccc(C(=O)Nc2ccc(Oc3cc4cnn(C)c4cc3-c3cn[nH]c3)c(F)c2)c(=O)n1-c1ccc(F)cc1` [MERESTINIB], the Kd (in experiment [1]; on Adenosine kinase; in experiment [2]; in experiment [3]; in experiment [4]) was > 30 µM (inactive) each time.
In the case of `C#Cc1cccc(Nc2ncnc3cc4c(cc23)OCCOCCOCCO4)c1` [ICOTINIB], the Kd (in experiment [1]; on Adenosine kinase; in experiment [2]; in experiment [3]; in experiment [4]) was > 30 µM (inactive) throughout.
Turning to `C=CCn1c(=O)c2cnc(Nc3ccc(N4CCN(C)CC4)cc3)nc2n1-c1cccc(C(C)(C)O)n1` [ADAVOSERTIB], the Kd in experiment [1] is > 30 µM (inactive); at Adenosine kinase it was 0.013 µM (active); in experiment [3], > 30 µM (inactive); in experiment [4], > 30 µM (inactive).
Consider `COc1cc(F)c(F)c(Nc2ccc(I)cc2F)c1NS(=O)(=O)C1(C[C@H](O)CO)CC1` [REFAMETINIB], for which the Kd (in experiment [1]; at Adenosine kinase; in experiment [2]; in experiment [3]; in experiment [4]) was > 30 µM (inactive) throughout.
On to `CCOc1ccn(-c2ccc(F)cc2)c(=O)c1C(=O)Nc1ccc(Oc2ccnc(N)c2Cl)c(F)c1` [BMS-777607], for which the Kd (in experiment [1]; at Adenosine kinase; in experiment [2]; in experiment [3]) was > 30 µM (inactive) in each case.
For the compound `O[C@H]1CC[C@H](Nc2ncc3nc(Nc4c(F)cc(F)cc4F)n([C@H]4CCOC4)c3n2)CC1` [TANZISERTIB], the Kd (in experiment [1]; on Adenosine kinase; in experiment [2]; in experiment [3]; in experiment [4]) was > 30 µM (inactive) throughout.
Consider `CC1(C)CNc2cc(NC(=O)c3cccnc3NCc3ccncc3)ccc21` [MOTESANIB], for which the Kd (in experiment [1]; at Adenosine kinase) was > 30 µM (inactive) in each case.
On to `COc1cc2c(N3CCN(C(=O)Nc4ccc(OC(C)C)cc4)CC3)ncnc2cc1OCCCN1CCCCC1` [TANDUTINIB], for which the Kd (in experiment [1]; at Adenosine kinase) was > 30 µM (inactive) each time.
As to `O=S(=O)(c1cccc2cnccc12)N1CCCNCC1` [FASUDIL], the figures for the Kd (in experiment [1]; at Adenosine kinase; in experiment [3]) were > 30 µM (inactive), > 30 µM (inactive) and 0.943 µM (active), respectively.
Regarding `CNC(=O)c1ccc(Nc2ncc(C(F)(F)F)c(NCc3nccnc3N(C)S(C)(=O)=O)n2)cc1` [DEFACTINIB], the Kd in experiment [1], in experiment [2], in experiment [3] and in experiment [4] was > 30 µM (inactive) in each case.
For the compound `Cc1cc(C(=O)Nc2cc(Oc3ccc4nc(NC(=O)C5CC5)cn4n3)ccc2C)n(C)n1` [TAK-593], the Kd in experiment [1], in experiment [2], in experiment [3] and in experiment [4] was > 30 µM (inactive) each time.
With `CCN(CCCOc1ccc2c(Nc3cc(CC(=O)Nc4cccc(F)c4)n[nH]3)ncnc2c1)CCOP(=O)(O)O` [BARASERTIB], the Kd (in experiment [1]; on Adenosine kinase; in experiment [4]) was > 30 µM (inactive) in each case.
On to `N#CCNC(=O)c1ccc(-c2ccnc(Nc3ccc(N4CCOCC4)cc3)n2)cc1` [MOMELOTINIB], for which the Kd in experiment [1] is > 30 µM (inactive); on Adenosine kinase, > 30 µM (inactive); in experiment [3], 0.219 µM (active); in experiment [4], > 30 µM (inactive).
In the case of `CN(C)C/C=C/C(=O)Nc1cc2c(Nc3ccc(F)c(Cl)c3)ncnc2cc1O[C@H]1CCOC1` [AFATINIB], the Kd in experiment [1] was > 30 µM (inactive); on Adenosine kinase it was 3.49 µM (active).
As to `O=S(=O)(c1cccc2c(O)nccc12)N1CCCNCC1` [HYDROXYFASUDIL], the Kd (in experiment [1]; on Adenosine kinase; in experiment [2]; in experiment [4]) was > 30 µM (inactive) throughout.
With `Cn1cnc2c(F)c(Nc3ccc(Br)cc3Cl)c(C(=O)NOCCO)cc21` [SELUMETINIB], the Kd (in experiment [1]; at Adenosine kinase) was > 30 µM (inactive) each time.
Regarding `CC(C)(O)CC(=O)NCCn1ccc2ncnc(Nc3ccc(Oc4cccc(C(F)(F)F)c4)c(Cl)c3)c21` [TAK-285], the Kd (in experiment [1]; on Adenosine kinase; in experiment [3]; in experiment [4]) was > 30 µM (inactive) throughout.
Turning to `Cn1c(=O)n(-c2ccc(C(C)(C)C#N)cc2)c2c3cc(-c4cnc5ccccc5c4)ccc3ncc21` [DACTOLISIB], the Kd (in experiment [1]; at Adenosine kinase; in experiment [3]; in experiment [4]) was > 30 µM (inactive) throughout.
As to `COc1cc2c(Oc3ccc4[nH]c(C)cc4c3F)ncnc2cc1OCCCN1CCCC1` [CEDIRANIB], the Kd (in experiment [1]; at Adenosine kinase) was > 30 µM (inactive) throughout.
As to `C[C@]1(O)C[C@@H](c2nc(-c3ccc4ccc(-c5ccccc5)nc4c3)c3c(N)nccn32)C1` [LINSITINIB], the Kd (in experiment [1]; on Adenosine kinase; in experiment [4]) was > 30 µM (inactive) in each case.
As for `CN(c1ncccc1CNc1nc(Nc2ccc3c(c2)CC(=O)N3)ncc1C(F)(F)F)S(C)(=O)=O` [PF-00562271], the Kd (in experiment [1]; at Adenosine kinase; in experiment [4]) was > 30 µM (inactive) each time.
In the case of `C[C@@]1(C(=O)Nc2ccc(F)nc2)CCCN1c1nc(Nc2cc(C3CC3)n[nH]2)c2cccn2n1` [BMS-754807], the Kd (in experiment [1]; at Adenosine kinase) was > 30 µM (inactive) throughout.
